The values that follow come from patent US20100310542A1, “Pharmaceutical Compositions for treating wouds and related methods” (HEALOR LTD., priority 2007, published 2010).

Assay [1] has as its system full thickness skin incisions. The assay is described as follows: incision wound healing in mice, percent of healed wounds. It is filed as in vivo, C57BL/6J mice. Particulars: agent alone, all formulations (A-C); daily, 7 days; vs groups treated with formulations alone; listed as pseudosubstrate peptide. The procedure: In vivo incision wound generation and inducement of inflammation: Full thickness (20 mm long) skin incisions were performed on the upper back of anesthetized C57BL/6J mice (6 mice per group). […] the incision, wounds were treated daily with insulin (10^−6 M; 0.1 units/ml); pseudosubstrate PKCα peptide, 1 μM (PKCα inhibitor); or Insulin+PKCα inhibitor (Myr-pseudosubstrate PKCα peptide, 1 μM and insulin 0.1 units) applied directly on the wounds in the various formulations (Formulations A-C) as described above. After 7 days, wounds were excised and the percentage of healed wounds was evaluated by examining the morphology and histology of the wounds. Results are presented as percent of healed wounds relative to the total number of wounds per group. […] Full thickness (20 mm long) skin incisions were performed on the upper back of anesthetized C57BL/6J mice (6 mice per group). […] After 7 days, wounds were excised and the percentage of healed wounds was evaluated by examining the morphology and histology of the wounds. […]

Assay [2] deals with full thickness skin incisions. The assay is described as follows: severe inflammatory burden at incision wounds in mice. It is filed as in vivo, C57BL/6J mice. Particulars: peptide 1 μM daily, 7 days. How it is done: Full thickness (20 mm long) skin incisions were performed on the upper back of anesthetized C57BL/6J mice (6 mice per group). Following incisions, wounds were treated daily with Myr-pseudosubstrate PKCα peptide, 1 μM applied directly on the wounds in the various formulations (Formulation A-C) described above.
(§1) After 7 days, wounds were excised and subjected to histology and immunohistochemistry. Inflammatory burden was considered severe when at least 2 of the 3 following parameters were present at the wound gap: (1) Abscess formation at the wounded area, (2) excessive leukocytosis (>100 cells in a fixed field×200), (3) high WBC/RBC ratio in blood vessels where >20% of WBC content within the blood vessels is shown in a fixed field (×200). Results are summarized and presented as percent of wounds with severe inflammation relative to the number of wounds in the group.
as §1, with “Full thickness (20 mm long) skin incisions were performed on the upper back of anesthetized C57BL/6J mice (6 mice per group). Following incision, wounds were treated daily with PKCα inhibitor (Pseudosubstrate PKCα peptide, 1 μM) applied directly to the wounds in the various formulations (Formulation A-C) described above. After” for “After”, “per total” for “relative to the number of”

In assay [3] the test system is PKCα. Briefly: PKCα activity assay in keratinocytes overexpressing PKCα. It is filed as cell-based, murine. The settings on record: Formulation A; peptide 1 μM for 15 minutes; PKCα overexpressing cells; relative to controls. The procedure:
Transduction of keratinocytes with PKC isoform genes: The culture medium was aspirated and keratinocyte cultures were infected with PKC recombinant adenoviruses encoding specific PKC isoforms such as PKCα for one hour. The cultures were then washed twice with MEM and re-fed. Ten hours post-infection cells were transferred to serum-free low Ca^2+-containing MEM for 24 hours.
PKC activity: Specific PKC activity was determined in freshly prepared immunoprecipitates from keratinocyte cultures following appropriate treatments. These lysates were prepared in RIPA buffer without NaF. Activity was measured using the SignaTECT Protein Kinase C Assay System (Promega, Madison, Wis., USA) according to the manufacturer's instructions. PKCα pseudosubstrate was used as the substrate in these studies.
PKC immunokinase assay: Purified and standardized PKC isozymes were kindly supplied by Dr. P. Blumberg (NCl, NIH, U.S.) and Dr. Marcello G. Kazanietz (University of Pennsylvania, School of Medicine). Primary keratinocytes were harvested in 500 μl […] (1% Triton-X 100, 10 μg/ml aprotinin and leupeptin, 2 μg/ml pepstatin, 1 mM PMSF, 1 mM EDTA, 200 μM […], 10 mM NaF in 1×PBS). Lysates were incubated at 4° C. for 30 minutes, and spun at 16,000×g for 30 minutes at 4° C. Supernatants were transferred to a fresh tube. […]

The subject of assay [4] is keratin 1. Briefly: keratin 1 expression by Western blot in keratinocytes. It is filed as cell-based, mice. The settings on record: visfatin 0.0001 μg/ml or L-alpha 100 ng/ml, 24 hours after calcium-induced differentiation. From the text: Medium A and B are both EMEM eagle's minimal essential medium from Biological Industries (Israel) containing 8% CHELEX™ treated fetal bovine serum. CHELEX™ is a strong chelator which binds free Ca^2+ and Mg^2+ ions to prevent these ions from being bioavailable to the cultured cells.
Primary skin keratinocytes isolated from the tails of adult mice (7-10 months up to 2 years) were maintained in medium A (MEM) as described above. After 5 days in (medium A), the growth medium in half of the cultured plates was replaced with medium B (as described above)
Next visfatin or L-alpha were each individually added to cells cultured in medium A (FIG. 19A) and cells cultured in medium B (FIG. 19B) as indicated in FIG. 19. The final concentration in the culture medium of visfatin was 0.0001 μg/ml visfatin. The final concentration in the culture medium of L-alpha was 100 ng/ml.
Cell differentiation was induced by elevating calcium from 0.05 mM to 0.12 mM as described above. Twenty-four (24) hours after differentiation cells were harvested and Western Blot analysis was performed. […] Keratin 1 expression was then quantified using standard densitometric methods […]
Cell differentiation was then induced by elevating calcium levels in the culture medium from 0.05 mM to 0.12 mM. […] Expression was assessed using standard Western blotting and densitometry techniques.

* marks the point of attachment. Myristoyl = CCCCCCCCCCCCCC(=O)*

In the case of “Myr*-Phe-Ala-Arg-Lys-Gly-Ala-Leu-Arg-Gln-OH (Myristoyl-FARKGALRQ-OH; SMILES CCCCCCCCCCCCCC(=O)N[C@@H](Cc1ccccc1)C(=O)N[C@@H](C)C(=O)N[C@@H](CCCNC(=N)N)C(=O)N[C@@H](CCCCN)C(=O)NCC(=O)N[C@@H](C)C(=O)N[C@@H](CC(C)C)C(=O)N[C@@H](CCCNC(=N)N)C(=O)N[C@@H](CCC(N)=O)C(=O)O) [PKCα inhibitor, myristoylated peptide corresponding to the pseudosubstrate region of PKCα, CAS 147217-25-2]”, in assay [1], the “healing of wounds (percent of healed wounds)” value is “did not promote wound healing efficacy”. Also, the figures for the “severe inflammation (percent of wounds with severe inflammation)” value in assay [2] (Formulation A), in assay [2] (Formulation B) and in assay [2] (Formulation C) were “significant reduction in severe inflammation”, “No reduction in inflammatory burden” and “No reduction in inflammatory burden”, respectively. Further, in assay [3], the “inhibition of PKCα activity” value is reported as “able to significantly inhibit PKCα activity”.

As for `CCCCCCCCCCCCCCCC(=O)OC[C@H](COP(=O)(O)OC1C(O)C(OP(=O)(O)O)C(OP(=O)(O)O)C(OP(=O)(O)O)C1O)OC(=O)CCCCCCCCCCCCCCC.N.N.N.N.N.N.N` (stereo partly drawn) [L-alpha, L-α-Phosphatidylinositol-3,4,5-trisphosphate, Dipalmitoyl-, Heptaammonium Salt], the “expression of keratin 1” value was “decreased relative to the control sample” in assay [4] (medium A (no KCl)) and “not significantly altered” in assay [4] (medium B (KCl 0.4 mg/ml)).
